Reference: US11419856B2, “Pharmaceutical combinations for use in the treatment of neoplastic diseases” (Basilea Pharmaceutica International AG, priority 2017, dated 2022)

Key:
NCI-H460-GFP cells = assay: Apoptosis assay (EGFP/FACS) in NCI-H460-GFP cells; assay type: cell-based; settings: Homo sapiens, data not shown, read-out: EC50, induction of apoptosis
Protocol: The following human cell line was used: MDA-MB-231 (ATCC: HTB-26). In addition the following enhanced green fluorescent protein (EGFP)-transfected human cell lines were used: NCI-H460 (ATCC: HTB-177) (H460GFP) and Jurkat (ATCC: TIB-152) (JurkatGFP). NCI-H460 and Jurkat cell lines were cultured in RPMI-1640 tissue culture medium containing 10% (v/v) fetal calf serum, 2 mM glutamine, non-essential amino acids and 50 μg/ml penicillin/streptomycin (Complete medium) (Sigma, Buchs, Switzerland). […]
The assays were performed in commercially available sterile 96-well U-bottom or 24-well flat-bottom tissue culture plates (Falcon). […] For time course experiments with Jurkat cells, the 96-well plates were removed shortly at the indicated time from the incubator, shaken in order to suspend the cells and an aliquot of 200 μl cell suspension was then transferred to a 96-well U-bottom plate and measured immediately on a fluorescence-activated cell sorting (FACS)-Canto II with a high through-put sampler (HTS)-module. […]
(§1) The quantification of the relative amount of apoptotic cells within a cell population was determined according to the Reference of Strebel et al., Cytometry 2001, 43(2), Green Fluorescent Protein as Novel Tool to Measure Apoptosis and Necrosis). […] As a readout the relative abundance of the cells belonging to M2 (apoptotic population) were expressed.

Jurkat-GFP cells = assay: Apoptosis assay (EGFP/FACS) in Jurkat-GFP cells; assay type: cell-based, human; settings: data not shown; for EC50: Homo sapiens, read-out: EC50, induction of apoptosis; for maximal apoptosis induction: maximum of dose-response curve
Protocol: (§2) The following human cell line was used: MDA-MB-231 (ATCC: HTB-26). In addition the following enhanced green fluorescent protein (EGFP)-transfected human cell lines were used: NCI-H460 (ATCC: HTB-177) (H460GFP) and Jurkat (ATCC: TIB-152) (JurkatGFP). NCI-H460 and Jurkat cell lines were cultured in RPMI-1640 tissue culture medium containing 10% (v/v) fetal calf serum, 2 mM glutamine, non-essential amino acids and 50 μg/ml penicillin/streptomycin (Complete medium) (Sigma, Buchs, Switzerland). The MDA-MB-231 cell line was cultured in Dulbecco's Modified Eagle Medium (DMEM) (high glucose) tissue culture medium containing 10% (v/v) fetal calf serum, 1 mM sodium pyruvate and 50 μg/ml penicillin/streptomycin (i.e. Complete Medium) (Sigma, Buchs, Switzerland).
(§3) General growth conditions were 37° C. and 7.5% CO2. For the microtubule destabilization assay cell lines were cultured in 5% CO2.
The assays were performed in commercially available sterile 96-well U-bottom or 24-well flat-bottom tissue culture plates (Falcon). A defined number of test cells expressing enhanced green fluorescent protein (EGFP) (H460 cells: 600 μl of 30′000 cells/ml in 24-well flat-bottom plates, Jurkat cells: 600 μl of 400′000 cells/ml in […]) were plated either 24 hours before treatment in case of the adherent H460 cell line, or one hour prior to the start of the treatment for Jurkat cells. Between seeding and addition of compounds, the cells were incubated at 37° C. under 7.5% CO2. Subsequently, BAL27862 and eribulin (Halaven®, Ch.-B. 60363CRN1, Eisai) which were dissolved in Complete Medium were both added from stock solutions at 5× the final concentration in 200 μl to the wells, resulting in a final well-volume of 1 ml. The test plates were then incubated for the indicated time. For time course experiments with Jurkat cells, the 96-well plates were removed shortly at the indicated time from the incubator, shaken in order to suspend the cells and an aliquot of 200 μl cell suspension was then transferred to a 96-well U-bottom plate and measured immediately on a fluorescence-activated cell sorting (FACS)-Canto II with a high through-put sampler (HTS)-module. […]
as §1, with “Necrosis). By monitoring the EGFP fluorescence activity excited at […] and measured at […] on a FACS-Cantoll™, it is possible to distinguish between proliferating cells, apoptotic cells and necrotic cells within the same cell population.” for “Necrosis).”

[1] = system: microtubules (soluble vs polymerized tubulin), MDA-MB-231 cells; assay: Cellular microtubule destabilization assay and immunoblotting for tubulin; assay type: cell-based, human; settings: 2 hours
Protocol: as §2, §3
Trypsinized MDA-MB-231 cells (500′000 cells per treatment) were treated in 1 mL medium containing BAL27862 and/or eribulin (Halaven®, Ch.-B. 60363CRN1, Eisai) or appropriate vehicle control (dimethylsulfoxide (DMSO)) for 2 hours in a water bath at 37° C. […]

Row | SMILES | EC50 (NCI-H460-GFP cells) [nM] | EC50 (Jurkat-GFP cells) [nM] | maximal apoptosis induction (Jurkat-GFP cells) | microtubule destabilizing activity (soluble vs particulate tubulin, Western blot) ([1]; single agent 20 and 30 nM (FIG. 5A)) | microtubule destabilizing activity (soluble vs particulate tubulin, Western blot) ([1]; single agent 0.2 nM and 2 nM)
1 | N#CCCNc1nonc1-c1nc2ccccc2n1CC(=O)c1ccc(N)cc1 [BAL27862, 3-(4-{1-[2-(4-Amino-phenyl)-2-oxo-ethyl]-1H-benzoimidazol-2-yl}-furazan-3-ylamino)-propionitrile] | 24 | 15 | 70-80% | concentration-dependent but incomplete destabilizing effect | –
2 | C=C1C[C@@H]2CC[C@@]34C[C@H]5O[C@H]6[C@@H](O3)[C@H]3O[C@H](CC[C@@H]3O[C@H]6[C@H]5O4)CC(=O)C[C@@H]3[C@@H](OC)[C@@H](C[C@H](O)CN)O[C@H]3C[C@H]3O[C@@H](CC[C@@H]1O2)C[C@@H](C)C3=C.CS(=O)(=O)O [Eribulin, (2R, 3R, 3aS, 7R, 8aS, 9S, 10aR, 11S, 12R, 13aR, 13bS, 15S, 18S, 21S, 24S, 26R, 28R, 29aS)-2-[(2S)-3-Amino-2-hydroxypropyl]-3-methoxy-26-methyl-20,27-dimethylidenehexacosahydro-11,15:18,21:24,28-triepoxy-7,9-ethano-12,15-methano-9H,15H-furo[3,2-i]furo[2′,3′:5,6]pyrano[4,3-b][1,4]dioxacyclopentacosin-5(4H)-one methanesulfonate (salt)] | 1 | 0.8 | about 70% | – | only a small increase in soluble tubulin
